Non-standard residues stand in square brackets, D forms with d. Residues, ends and D or L forms follow the SMILES beside them. *: point of attachment. Bn = c1ccc(C*)cc1
Experiments:
tryptophan uptake = test: Tryptophan uptake inhibition (tryptophan uptake method)
Protocol: Each of the resultant 10 fractions is assayed according to the tryptophan uptake method described in Biological Psychiatry, Vol. 7, No. 1, p. 53, (1973) as an indication of the amount of anti-S protein factor therein.
Tryptophan uptake are also conducted for the tested polypeptides. The tryptophan uptake inhibition is determined at 10 minutes.

alpha-helical S-protein = test: Intracranial self-stimulation (bar pressing) in rats given alpha-helical S-protein; assay type: in vivo; settings: for Bar Presses Restoration %: alpha-helical S-protein intercisternally, polypeptide 0.2 mg/kg intramuscularly
[1] = tested on: S-protein of schizophrenics; test: Conversion of alpha-helical S-protein to random chain conformation; assay type: biochemical, human
[2] = Activity useful for alleviating the symptoms of schizophrenia (test not specified)
Protocol: Following essentially the same procedures as described above, N-acetyl-tyrosylthreonylvalylleucine, prolylthreonylvalylleucylprolylglycine are tested to determine their effect on rats which have been administered the alpha-helical S-protein.

| Compound | Tryptophan Uptake Inhibition % (tryptophan uptake; determined at 10 minutes) | Bar Presses Restoration % (alpha-helical S-protein; rats) | also measured |
| --- | --- | --- | --- |
| CC(C)C[C@H](NC(=O)[C@@H](NC(=O)[C@@H](NC(=O)[C@@H](C)N)[C@@H](C)O)C(C)C)C(=O)O [D-Alanyl-L-threonyl-L-valyl-L-leucine] (H-[dA]TVL-OH) | 15% | – | duration of tryptophan uptake inhibition (in words) (tryptophan uptake; 10, 15 and 30 minutes): after a period of time the inhibition of tryptophan uptake may be diminished; Tryptophan Uptake Inhibition % (tryptophan uptake; 15 min.): 16%; Tryptophan Uptake Inhibition % (tryptophan uptake; 30 min.): 0% |
| NCC(=O)NCC(=O)NCC(=O)O [Glycylglycylglycine, reference compound] (H-Gly-Gly-Gly-OH) | 0% | 3% | – |
| CC(C)C[C@H](NC(=O)[C@@H](NC(=O)[C@@H](NC(=O)CN)[C@@H](C)O)C(C)C)C(=O)O [Glycylthreonylvalylleucine] (H-GTVL-OH) | 24.3% | 100% | – |
| CC(C)C[C@@H](NC(=O)[C@@H](NC(=O)[C@@H](N)[C@@H](C)O)C(C)C)C(=O)O [L-Threonyl-L-valyl-D-leucine] (H-Thr-Val-[dL]-OH) | 12% | – | Tryptophan Uptake Inhibition % (tryptophan uptake; 15 min.): 18%; Tryptophan Uptake Inhibition % (tryptophan uptake; 30 min.): 21% |
| CC(C)C[C@H](NC(=O)[C@@H](NC(=O)[C@@H](N)[C@@H](C)O)C(C)C)C(=O)N[C@H](C)C(=O)O [L-Threonyl-L-valyl-L-leucyl-D-alanine] (H-TVL[dA]-OH) | 2% | – | tryptophan uptake activity (in words) (tryptophan uptake): without significant tryptophan uptake activity |
| CC(=O)N[C@H](C(=O)N[C@H](C(=O)N[C@@H](CC(C)C)C(N)=O)C(C)C)[C@@H](C)O [N-Acetyl-threonylvalylleucinamide] (Ac-Thr-Val-Leu-NH2) | 56.5% | 100% | – |
| CC(=O)N[C@H](C(=O)N[C@H](C(=O)N[C@@H](CC(C)C)C(=O)O)C(C)C)[C@@H](C)O [N-Acetyl-threonylvalylleucine] (Ac-Thr-Val-Leu-OH) | 20.2% | 100% | – |
| CC(C)C[C@H](NC(=O)[C@@H](NC(=O)[C@@H](N)[C@@H](C)OCc1ccccc1)C(C)C)C(N)=O [O-Benzyl-threonylvalylleucinamide] (H-Thr(Bn)-Val-Leu-NH2) | 0% | toxic | – |
| CC(C)C[C@H](NC(=O)[C@@H](NC(=O)[C@@H](NC(=O)[C@@H]1CCCN1C(=O)[C@@H](N)Cc1ccccc1)[C@@H](C)O)C(C)C)C(=O)N1CCC[C@H]1C(=O)N[C@@H](Cc1ccccc1)C(=O)O [Phenylalanylprolylthreonylvallylleucylprolyl phenylalanine] (H-FPTVLPF-OH) | 39.5% | 100% | – |
| CC(C)C[C@H](NC(=O)[C@@H](NC(=O)[C@@H](NC(=O)[C@@H]1CCCN1)[C@@H](C)O)C(C)C)C(=O)N1CCC[C@H]1C(=O)NCC(=O)O [Prolylthreonylvalylleucylprolylgylcine] (H-PTVLPG-OH) | 44.2% | – | restoration of the bar pressing activity of the rats (in words) (alpha-helical S-protein; rats administered the alpha-helical S-protein): restores the bar pressing activity of the rats |
| CC[C@H](C)[C@H](NC(=O)[C@@H](NC(=O)[C@@H](N)[C@@H](C)O)C(C)C)C(=O)O [Threonylvalylisoleucine] (H-Thr-Val-Ile-OH) | 5.6% | 41% | – |
| CC(C)C[C@H](NC(=O)[C@@H](NC(=O)[C@@H](N)[C@@H](C)O)C(C)C)C(N)=O [Threonylvalylleucinamide] (H-Thr-Val-Leu-NH2) | 21.6% | 90% | – |
| CC(C)C[C@H](NC(=O)[C@@H](NC(=O)[C@@H](N)[C@@H](C)O)C(C)C)C(=O)O [Threonylvalylleucine] (H-Thr-Val-Leu-OH) | 19.8% | 85% | period of effectiveness in counteracting the effect of the S-protein (alpha-helical S-protein; rats): of short duration; activity against the S-protein of schizophrenics (conformation change, in words) [1]: the alpha-helical conformation of the S-protein is converted to the random form |
| CC(C)C[C@H](NC(=O)[C@@H](NC(=O)[C@@H](N)[C@@H](C)O)C(C)C)C(=O)N[C@@H](CCCNC(=N)N)C(=O)O [threonylvalylleucylarginine] (H-TVLR-OH) | – | – | activity useful for alleviating the symptoms of schizophrenia (in words) [2]: exhibiting activity useful for alleviating the symptoms of schizophrenia |
| N-α-Acetyl-Threonylvalyleucine, methyl ester | 24.2% | – | – |
